In the supplement of paper PMC10307832:

Assays:
Assay in all cases: relative viability (nuclei count vs DMSO), 5 days (fraction); higher = more cells survive
Shikonin + Palbociclib = compound: CC(C)=CC[C@@H](O)C1=CC(=O)c2c(O)ccc(O)c2C1=O [Shikonin] + CC(=O)c1c(C)c2cnc(Nc3ccc(N4CCNCC4)cn3)nc2n(C2CCCC2)c1=O [Palbociclib] (partner 0.5 µM)
Procedure, shortened: (§1)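 Lung cancer cell lines in 1536-well plates got either a single drug or a fixed anchor-drug dose together with five library-drug doses (not always all listed) in √10 steps, by pin tool, on the day after seeding. Nuclei were counted after 5 days, and relative viability is the treated-to-vehicle ratio of nuclei counts. Values are medians of duplicate plates.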

Shikonin + Pemetrexed = compound: CC(C)=CC[C@@H](O)C1=CC(=O)c2c(O)ccc(O)c2C1=O [Shikonin] + Nc1nc2[nH]cc(CCc3ccc(C(=O)N[C@@H](CCC(=O)O)C(=O)O)cc3)c2c(=O)[nH]1 [Pemetrexed] (partner 0.2 µM)
Procedure, shortened: as §1

[1] = compound: CC(C)N(CCCNC(=O)Nc1ccc(C(C)(C)C)cc1)C[C@H]1O[C@@H](n2ccc3c(N)ncnc32)[C@H](O)[C@@H]1O + Cc1nc(NC(=O)N2CCC[C@H]2C(N)=O)sc1-c1ccnc(C(C)(C)C(F)(F)F)c1 [Alpelisib] (partner 2 µM)
Procedure, shortened: as §1

[2] = compound: CC(C)N(CCCNC(=O)Nc1ccc(C(C)(C)C)cc1)C[C@H]1O[C@@H](n2ccc3c(N)ncnc32)[C@H](O)[C@@H]1O + Nc1ncn([C@H]2C[C@H](O)[C@@H](CO)O2)c(=O)n1 [Decitabine] (partner 2 µM)
Procedure, shortened: as §1

| Cell Line | relative viability (Shikonin + Palbociclib; first compound 0.01 µM) | relative viability (Shikonin + Palbociclib; first compound 0.1 µM) | relative viability (Shikonin + Palbociclib; first compound 0.3162 µM) | relative viability (Shikonin + Palbociclib; first compound 1 µM) | relative viability (Shikonin + Pemetrexed; first compound 0.01 µM) | relative viability (Shikonin + Pemetrexed; first compound 0.1 µM) | relative viability (Shikonin + Pemetrexed; first compound 0.3162 µM) | relative viability (Shikonin + Pemetrexed; first compound 1 µM) | relative viability ([1]; first compound 0.08 µM) | relative viability ([1]; first compound 0.253 µM) | relative viability ([1]; first compound 0.8 µM) | relative viability ([1]; first compound 2.53 µM) | relative viability ([1]; first compound 8 µM) | relative viability ([2]; first compound 0.08 µM) | relative viability ([2]; first compound 0.253 µM) | relative viability ([2]; first compound 0.8 µM) | relative viability ([2]; first compound 2.53 µM) | relative viability ([2]; first compound 8 µM) |
| --- | --- | --- | --- | --- | --- | --- | --- | --- | --- | --- | --- | --- | --- | --- | --- | --- | --- | --- |
| NCI-H2085 | 0.468 | 0.509 | 0.447 | 0.479 | 0.88 | 0.93 | 0.868 | 0.872 | 0.969 | 0.978 | 1.05 | 0.972 | 0.913 | 0.55 | 0.486 | 0.561 | 0.542 | 0.546 |
| COR-L 105 | 0.447 | 0.388 | 0.483 | 0.402 | 1.1 | 1.09 | 1.05 | 1.02 | 0.733 | 1.08 | 1.06 | 1.02 | 0.974 | 0.631 | 0.67 | 0.736 | 0.638 | 0.694 |
| SW 1573 | 0.513 | 0.344 | 0.323 | 0.093 | 0.946 | 0.947 | 0.589 | 0.143 | 0.771 | 0.708 | 0.734 | 0.949 | 0.667 | 0.464 |  | 0.636 | 0.512 | 0.543 |
| LXF-289 | 0.594 | 0.707 | 0.618 | 0.622 | 0.892 | 0.959 | 0.955 | 0.945 | 1.01 | 1.05 | 1.07 | 1.09 | 1.04 | 0.329 | 0.39 | 0.396 | 0.378 | 0.336 |
| RERF-LC-KJ | 1.09 | 1.13 | 1.1 | 1.08 | 0.47 | 0.512 | 0.465 | 0.549 | 0.826 | 0.757 | 0.868 | 0.838 | 0.815 | 0.703 | 0.685 | 0.715 | 0.639 | 0.693 |
| NCI-H1666 | 0.648 | 0.664 | 0.617 | 0.599 | 0.869 | 0.854 | 0.916 | 0.861 | 0.888 | 0.825 | 0.895 | 0.943 | 1.02 | 0.722 | 0.697 | 0.808 | 0.832 | 0.673 |
| NCI-H2087 | 0.235 | 0.234 | 0.219 | 0.256 | 0.675 | 0.706 | 0.626 | 0.69 | 1.04 | 1.21 | 1.14 | 1.24 | 1.11 | 0.272 | 0.303 | 0.232 | 0.336 | 0.256 |
| NCI-H1734 | 0.319 | 0.38 | 0.323 | 0.308 | 0.413 | 0.479 | 0.434 | 0.382 | 0.665 | 0.665 | 0.636 | 0.723 | 0.713 | 0.454 | 0.495 | 0.463 | 0.545 | 0.484 |
| EMC-BAC-2 | 0.512 | 0.573 | 0.538 | 0.513 | 0.44 | 0.503 | 0.453 | 0.422 | 0.654 | 0.753 | 0.722 | 0.721 | 0.706 | 0.939 | 1.02 | 1.07 | 1.09 | 0.96 |
| NCI-H2009 | 0.248 | 0.203 | 0.213 | 0.145 | 1.11 | 1.06 | 1.09 | 1.05 | 1.19 | 1.15 | 1.22 | 1.22 | 1.18 | 0.476 | 0.418 | 0.438 | 0.39 | 0.372 |
| NCI-H647 | 0.487 | 0.325 | 0.38 | 0.361 | 0.194 | 0.174 | 0.183 | 0.156 | 1.14 |  | 1.08 | 1.05 | 1.25 | 0.419 | 0.374 | 0.363 | 0.336 | 0.392 |
| NCI-H661 | 0.405 | 0.395 | 0.426 | 0.4 | 0.944 | 1.02 | 0.957 | 0.729 | 0.692 | 0.61 | 1.03 | 0.63 | 0.645 | 0.521 | 0.469 | 0.542 | 0.577 | 0.623 |
| NCI-H1792 | 0.717 | 0.493 | 0.729 | 0.7 | 0.819 | 0.82 | 0.689 | 0.958 | 0.671 | 0.497 | 0.688 | 0.696 | 0.668 | 0.527 |  | 0.56 | 0.529 | 0.607 |
| NCI-H2023 | 0.437 | 0.363 | 0.411 | 0.401 | 0.239 | 0.235 | 0.221 | 0.262 | 0.532 | 0.619 | 0.619 | 0.68 | 0.622 | 0.256 | 0.25 | 0.242 | 0.205 | 0.191 |
| LOU-NH91 | 0.546 | 0.526 | 0.549 | 0.5 | 0.367 | 0.381 | 0.381 | 0.458 | 0.631 | 0.679 |  | 0.753 | 0.663 | 0.757 | 0.815 |  | 0.858 | 0.793 |
| NCI-H3122 | 0.228 | 0.215 | 0.178 | 0.176 | 0.215 | 0.219 | 0.209 | 0.209 | 0.808 | 0.846 | 0.797 | 0.858 | 0.701 | 0.445 | 0.467 | 0.462 | 0.409 | 0.481 |
| LCLC-97TM1 | 0.293 | 0.279 | 0.279 | 0.23 | 0.123 | 0.162 | 0.155 | 0.16 | 0.251 |  | 0.267 | 0.174 | 0.222 | 0.215 | 0.305 | 0.243 | 0.242 | 0.194 |
| NCI-H650 | 0.325 | 0.314 | 0.334 | 0.34 | 0.87 | 0.987 | 1.13 | 0.857 | 0.984 | 1.09 | 1.21 | 1.13 | 0.958 | 0.338 | 0.372 | 0.335 | 0.315 | 0.324 |
| PC-14 | 0.397 | 0.535 | 0.524 | 0.509 | 0.15 | 0.137 | 0.125 | 0.135 | 0.883 | 0.818 | 0.988 | 0.964 | 0.794 | 0.191 | 0.246 | 0.215 | 0.231 | 0.206 |
| H3255 | 0.316 | 0.333 | 0.337 | 0.303 | 0.592 | 0.563 | 0.605 | 0.577 | 0.93 | 0.711 | 0.662 | 0.714 | 0.665 | 0.613 | 0.645 | 0.491 | 0.626 | 0.511 |
| SK-MES-1 | 0.317 | 0.3 | 0.295 | 0.288 | 0.923 | 1.17 | 0.984 | 1.01 | 0.992 | 0.897 | 0.754 | 0.945 | 0.838 | 0.436 | 0.377 | 0.36 | 0.384 | 0.377 |
| NCI-H1437 | 0.328 | 0.309 | 0.268 | 0.303 | 0.332 | 0.37 | 0.291 | 0.354 | 0.9 | 1.01 | 1.1 | 0.903 | 0.945 | 0.563 | 0.569 | 0.619 | 0.553 | 0.592 |
| LU99A | 0.457 | 0.486 | 0.348 | 0.38 | 0.174 | 0.206 | 0.191 | 0.199 | 0.477 | 0.445 | 0.54 | 0.555 | 0.503 | 0.802 | 0.92 | 0.895 | 0.919 | 0.991 |
| HCC-827 | 0.48 | 0.517 | 0.518 | 0.493 | 0.23 | 0.283 | 0.234 | 0.259 | 0.922 | 0.938 |  | 0.952 | 0.919 | 0.322 | 0.325 | 0.315 | 0.304 | 0.38 |
| LK-2 | 0.772 | 0.869 | 0.773 | 0.664 | 0.311 | 0.3 | 0.306 | 0.266 | 0.923 | 1.02 | 1.01 | 0.934 | 1.02 | 0.308 | 0.293 | 0.388 | 0.325 | 0.22 |
| HCC-366 | 0.415 | 0.4 | 0.316 | 0.388 | 0.172 | 0.185 | 0.161 | 0.15 | 0.394 | 0.442 | 0.366 | 0.367 | 0.41 | 0.359 | 0.335 | 0.317 | 0.294 | 0.352 |
| BEN | 0.47 | 0.465 | 0.437 | 0.54 | 0.765 | 0.856 | 0.78 | 0.87 | 0.909 | 0.93 | 0.953 | 0.913 | 0.989 | 0.602 | 0.596 | 0.739 | 0.717 | 0.678 |
| NCI-H2347 | 0.432 | 0.424 | 0.414 | 0.397 | 0.471 | 0.479 | 0.402 | 0.44 | 0.882 | 0.904 | 0.935 | 1.1 | 1 | 0.529 | 0.688 | 0.616 | 0.664 | 0.432 |
| NCI-H1395 | 0.524 | 0.664 | 0.596 | 0.628 | 0.84 | 0.944 | 0.85 | 1.01 | 1.11 | 0.996 |  | 1.21 | 1.05 | 0.711 | 0.704 | 0.76 | 0.748 | 0.662 |
| 201T | 0.346 | 0.413 | 0.331 | 0.387 | 0.346 | 0.382 | 0.368 | 0.307 | 1 | 1.03 | 1.02 | 0.98 | 0.962 | 0.841 | 0.889 |  | 0.876 | 0.844 |
